{"source": "patent US12024546B2", "about": "“Peptides and anti-cancer compositions including thereof” (GWANGJU INSTITUTE OF SCIENCE AND TECHNOLOGY, priority 2022, dated 2024)", "molecules": {"B1": {"name": "dysadherin: purified recombinant His-tagged dysadherin protein, full-length (wild-type), from E. coli (protein)", "chain": "QTLKDTTSSSSADSTIMDIQVPTRAPDAVYTELQPTSPTPTWPADETPQPQTQTQQLEGTDGPLVTDPETHKSTKAAHPTDDTTTLSERPSPSTDVQTDPQTLKPSGFHEDDPFFYDEHTLRKRGLLVAAVLFITGIIILTSGKCRQLSRLCRNRCR"}}, "key": {"HCT116 cells [1]": {"tested_on": "HCT116 cells", "assay": "Wound healing assay (migration), HCT116 cells overexpressing dysadherin", "format": "cell-based, human", "conditions": "VS-4718 1 μM, 48-h incubation in serum-free media", "procedure": "(§1) FIGS. 16A-16G illustrate functional involvement of fibronectin/integrin/FAK axis in dysadherin-mediated protumor activity. (FIG. 16A) The number of viable cells was measured with an automated cell counter (Countess II, ThermoFisher Scientific, Waltham, MA, USA) at the indicated time points (n=3/group) in HCT116 cells overexpressing wildtype (full length) or mutant dysadherin. EV-transfected cells were used as controls. […] (FIG. 16B) To determine the effect of fibronectin and FAK signaling on cancer cell growth, dysadherin-OE or control cells were transfected with control siRNA (siCTRL) or siRNAs targeting fibronectin (siFN1). At 24 h after transfection, cells were detached, reseeded, and incubated for 12 h for cell attachment. […] The relative cell numbers were determined by MTT assays (n=3/group). […] The black dotted line indicates initial wound area, and the blue line indicates the cell boundaries determined after a 48-h incubation in serum-free media. […] After a 24-h incubation, the cells that invaded through to the bottom of the membrane were fixed, stained with crystal violet, and counted under a phase-contrast microscope (n=3/group). […]\nCells were seeded in culture inserts (Ibidi, GmbH, Martinsried, Germany). […] The wound area at time zero or the endpoint was measured using Image-Pro Premier 9.2. The area of wound closure was calculated as a percentage of the initial wound area. […]"}, "FAK": {"molecular_target": "T1, FAK (Homo sapiens, UniProt Q05397)", "T1 construct": "endogenous in cells; host or cells: Human CRC cells", "T1 sequence (Q05397 whole entry)": "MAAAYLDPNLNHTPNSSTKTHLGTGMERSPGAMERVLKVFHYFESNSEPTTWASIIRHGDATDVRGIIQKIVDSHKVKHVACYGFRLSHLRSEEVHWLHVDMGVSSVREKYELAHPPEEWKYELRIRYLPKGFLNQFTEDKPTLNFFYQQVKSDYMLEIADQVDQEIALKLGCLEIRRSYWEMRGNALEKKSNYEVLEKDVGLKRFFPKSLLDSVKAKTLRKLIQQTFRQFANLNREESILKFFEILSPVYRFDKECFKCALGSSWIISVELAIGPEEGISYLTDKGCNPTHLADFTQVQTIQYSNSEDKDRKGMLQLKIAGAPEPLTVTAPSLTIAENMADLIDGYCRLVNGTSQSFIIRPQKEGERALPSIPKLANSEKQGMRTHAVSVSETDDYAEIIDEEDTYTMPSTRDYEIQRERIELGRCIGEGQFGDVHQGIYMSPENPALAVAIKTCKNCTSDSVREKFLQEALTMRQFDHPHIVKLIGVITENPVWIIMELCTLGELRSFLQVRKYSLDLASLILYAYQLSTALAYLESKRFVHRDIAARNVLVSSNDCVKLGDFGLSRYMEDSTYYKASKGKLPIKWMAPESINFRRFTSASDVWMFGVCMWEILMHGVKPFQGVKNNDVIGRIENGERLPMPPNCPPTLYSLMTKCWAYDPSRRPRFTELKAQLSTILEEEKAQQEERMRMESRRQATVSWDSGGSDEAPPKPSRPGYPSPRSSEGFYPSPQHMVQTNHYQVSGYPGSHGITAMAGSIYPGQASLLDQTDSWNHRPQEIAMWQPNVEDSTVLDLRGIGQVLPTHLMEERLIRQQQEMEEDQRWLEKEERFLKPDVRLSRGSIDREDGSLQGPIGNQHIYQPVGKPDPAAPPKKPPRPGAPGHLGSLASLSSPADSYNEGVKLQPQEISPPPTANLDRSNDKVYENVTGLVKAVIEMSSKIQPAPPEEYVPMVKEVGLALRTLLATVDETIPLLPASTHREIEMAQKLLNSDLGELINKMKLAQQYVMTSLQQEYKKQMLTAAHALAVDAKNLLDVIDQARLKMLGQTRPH", "assay": "Immunoblot of FAK activation status (p-FAK)", "format": "cell-based", "procedure": "as §1\nTissues or cells were homogenized in RIPA buffer for 20 min on ice. Protein concentrations were determined based on bicinchoninic acid (BCA) assay using the BCA Protein Assay kit (Thermo Fisher Scientific, Waltham, MA, USA). […]"}, "HCT116 cells [2]": {"tested_on": "HCT116 cells", "assay": "Boyden chamber assay (invasion), HCT116 cells overexpressing dysadherin", "format": "cell-based, human", "conditions": "FAK inhibitor 3 μmol/L, 24-h incubation, serum-free media", "procedure": "as §1, with “(siFN1).” for “(siFN1). At 24 h after transfection, cells were detached, reseeded, and incubated for 12 h for cell attachment.”\nThe Transwell system (8 μm pore size, Corning) was employed for migration and invasion assays. […] After incubation for 24 h at 37° C., the cells that migrated or invaded the Matrigel through to the bottom of the insert membrane were fixed, stained with crystal violet, and counted under a phase-contrast microscope (Carl Zeiss, biological triplicates)."}, "[3]": {"tested_on": "dysadherin-OE HCT116 cells", "assay": "Cell growth by MTT assay, dysadherin-OE HCT116 cells", "format": "cell-based, human", "conditions": "VS-4718 3 μM, 36 h", "procedure": "(§2) FIGS. 16A-16G illustrate functional involvement of fibronectin/integrin/FAK axis in dysadherin-mediated protumor activity. (FIG. 16A) The number of viable cells was measured with an automated cell counter (Countess II, ThermoFisher Scientific, Waltham, MA, USA) at the indicated time points (n=3/group) in HCT116 cells overexpressing wildtype (full length) or mutant dysadherin. EV-transfected cells were used as controls. […] (FIG. 16B) To determine the effect of fibronectin and FAK signaling on cancer cell growth, dysadherin-OE or control cells were transfected with control siRNA (siCTRL) or siRNAs targeting fibronectin (siFN1). At 24 h after transfection, cells were detached, reseeded, and incubated for 12 h for cell attachment. Then cells were incubated for 36 h with or without FAK inhibitor treatment (VS-4718, 3 μM). The relative cell numbers were determined by MTT assays (n=3/group). […] Cells were seeded on fibronectin-coated culture plates with or without VS-4718, at 1 or 3 μM. […] The black dotted line indicates initial wound area, and the blue line indicates the cell boundaries determined after a 48-h incubation in serum-free media. […] After a 24-h incubation, the cells that invaded through to the bottom of the membrane were fixed, stained with crystal violet, and counted under a phase-contrast microscope (n=3/group). […]"}, "wild-type HCT116 cells": {"tested_on": "wild-type HCT116 cells", "assay": "Cell growth by MTT assay, wild-type HCT116 cells", "format": "cell-based, human", "conditions": "VS-4718 3 μM, 36 h", "procedure": "as §2"}, "HCT116 cells [4]": {"tested_on": "HCT116 cells", "assay": "Clonogenic assay (survival potential), HCT116 cells overexpressing dysadherin", "format": "cell-based, human", "conditions": "VS-4718 3 μmol/L for 24 h, then clonogenic assay", "procedure": "as §1\nA clonogenic assay was performed as cells were seeded in 12-well plates (200 cells/well) and cultured for 14 days. The numbers of colonies greater than 50 μm in size were counted after staining with crystal violet (n=3/group)."}, "SW480 cells": {"tested_on": "SW480 cells", "assay": "Cell viability by MTT assay, SW480 cells", "format": "cell-based, human", "conditions": "MTT assay at 48 hours after peptide treatment", "procedure": "(§3) FIGS. 13C-13D illustrate cell viability were measured by an MTT assay at 48 hours after the treatment of annotated peptide in SW480 cells with and without KO of dysadherin.\n(§4) Cells were seeded in 6-well or 96-well plates and incubated for various time points. The numbers of viable cells were measured with an automated cell counter (Countess II, ThermoFisher Scientific, Waltham, MA, USA) or measured by staining with thiazolyl blue tetrazolium bromide (MTT, Sigma-Aldrich, St. Louis, MO, USA), and the absorbance was measured using a microplate spectrophotometer (Bio-Tek Instruments Inc., Winooski, VT, USA)."}, "[5]": {"tested_on": "dysadherin KO SW480 cells", "assay": "Cell viability by MTT assay, dysadherin KO SW480 cells", "format": "cell-based, human", "conditions": "MTT assay at 48 hours after peptide treatment", "procedure": "as §3\nA dysadherin-KO (FXYD5^−/−) SW480 cell line was generated by Transomic Technologies (Huntsville, AL, USA). Specific gRNA targeting different regions of the human FXYD5 gene was designed and cloned into the pCLIPAll (EFS-Puro) expression vector. SW480 cells were infected with lentiviral particles and selected with puromycin for 1 week. Dilution cloning was performed to obtain different monoclonal cell populations. […] For establishment of the dysadherin-OE cell line, HCT116 cells were transfected with dysadherin expression vector (pcDNA-L3HSV) and selected with G418 for 1 week. Dilution cloning was performed and OE of the dysadherin gene was confirmed by RT-qPCR and immunoblot analysis. […]\nas §4"}, "fibronectin [6]": {"tested_on": "fibronectin", "assay": "Pull-down assay of His-tagged synthesized peptides with purified fibronectin", "format": "binding", "conditions": "His-tagged peptide 20 μg, purified fibronectin 0.5 μg, Ni-NTA agarose beads, Coomassie staining", "text": "FIG. 13B illustrates pull-down assay using purified fibronectin and purified His-tagged synthesized peptides to determine the specific sequence with fibronectin-binding activity.\nThe coding sequences of wild-type or mutant forms of dysadherin were synthesized and cloned into pET151/DTOPO vector by Thermo Fisher Scientific. OE of His-tagged dysadherin was achieved using E. coli grown in Luria-Bertani (LB) broth medium, supplemented with ampicillin. Isopropyl β-D-1-thiogalactopyranoside (IPTG, 0.5 mM) was added into the LB broth medium to induce the expression of the protein of interest, and the mixture was incubated for 5 h at 37° C. The cells were then lysed using RIPA buffer and purified using a Ni-NTA column (R90101, Thermo Fisher Scientific). The concentrated purified protein was measured using the BCA Protein Assay kit (Thermo Fisher Scientific). […] Presence of His-tagged dysadherin and fibronectin proteins were determined by immunoblot analysis using anti-His rabbit monoclonal antibody (#12698, Cell Signaling Technology) and anti-fibronectin rabbit polyclonal antibody (ab2413, Abcam, Cambridge, MA, USA). […] The purity of each peptide was determined to be over 95% by LC-MS. […] The presence of His-tagged dysadherin, dysadherin peptides, and fibronectin was determined by staining with Coomassie Brilliant Blue."}, "fibronectin [7]": {"molecular_target": "T2, fibronectin (Homo sapiens, UniProt P02751)", "T2 construct": "purchased Sigma Aldrich", "T2 sequence (P02751 32-2477, species assumed)": "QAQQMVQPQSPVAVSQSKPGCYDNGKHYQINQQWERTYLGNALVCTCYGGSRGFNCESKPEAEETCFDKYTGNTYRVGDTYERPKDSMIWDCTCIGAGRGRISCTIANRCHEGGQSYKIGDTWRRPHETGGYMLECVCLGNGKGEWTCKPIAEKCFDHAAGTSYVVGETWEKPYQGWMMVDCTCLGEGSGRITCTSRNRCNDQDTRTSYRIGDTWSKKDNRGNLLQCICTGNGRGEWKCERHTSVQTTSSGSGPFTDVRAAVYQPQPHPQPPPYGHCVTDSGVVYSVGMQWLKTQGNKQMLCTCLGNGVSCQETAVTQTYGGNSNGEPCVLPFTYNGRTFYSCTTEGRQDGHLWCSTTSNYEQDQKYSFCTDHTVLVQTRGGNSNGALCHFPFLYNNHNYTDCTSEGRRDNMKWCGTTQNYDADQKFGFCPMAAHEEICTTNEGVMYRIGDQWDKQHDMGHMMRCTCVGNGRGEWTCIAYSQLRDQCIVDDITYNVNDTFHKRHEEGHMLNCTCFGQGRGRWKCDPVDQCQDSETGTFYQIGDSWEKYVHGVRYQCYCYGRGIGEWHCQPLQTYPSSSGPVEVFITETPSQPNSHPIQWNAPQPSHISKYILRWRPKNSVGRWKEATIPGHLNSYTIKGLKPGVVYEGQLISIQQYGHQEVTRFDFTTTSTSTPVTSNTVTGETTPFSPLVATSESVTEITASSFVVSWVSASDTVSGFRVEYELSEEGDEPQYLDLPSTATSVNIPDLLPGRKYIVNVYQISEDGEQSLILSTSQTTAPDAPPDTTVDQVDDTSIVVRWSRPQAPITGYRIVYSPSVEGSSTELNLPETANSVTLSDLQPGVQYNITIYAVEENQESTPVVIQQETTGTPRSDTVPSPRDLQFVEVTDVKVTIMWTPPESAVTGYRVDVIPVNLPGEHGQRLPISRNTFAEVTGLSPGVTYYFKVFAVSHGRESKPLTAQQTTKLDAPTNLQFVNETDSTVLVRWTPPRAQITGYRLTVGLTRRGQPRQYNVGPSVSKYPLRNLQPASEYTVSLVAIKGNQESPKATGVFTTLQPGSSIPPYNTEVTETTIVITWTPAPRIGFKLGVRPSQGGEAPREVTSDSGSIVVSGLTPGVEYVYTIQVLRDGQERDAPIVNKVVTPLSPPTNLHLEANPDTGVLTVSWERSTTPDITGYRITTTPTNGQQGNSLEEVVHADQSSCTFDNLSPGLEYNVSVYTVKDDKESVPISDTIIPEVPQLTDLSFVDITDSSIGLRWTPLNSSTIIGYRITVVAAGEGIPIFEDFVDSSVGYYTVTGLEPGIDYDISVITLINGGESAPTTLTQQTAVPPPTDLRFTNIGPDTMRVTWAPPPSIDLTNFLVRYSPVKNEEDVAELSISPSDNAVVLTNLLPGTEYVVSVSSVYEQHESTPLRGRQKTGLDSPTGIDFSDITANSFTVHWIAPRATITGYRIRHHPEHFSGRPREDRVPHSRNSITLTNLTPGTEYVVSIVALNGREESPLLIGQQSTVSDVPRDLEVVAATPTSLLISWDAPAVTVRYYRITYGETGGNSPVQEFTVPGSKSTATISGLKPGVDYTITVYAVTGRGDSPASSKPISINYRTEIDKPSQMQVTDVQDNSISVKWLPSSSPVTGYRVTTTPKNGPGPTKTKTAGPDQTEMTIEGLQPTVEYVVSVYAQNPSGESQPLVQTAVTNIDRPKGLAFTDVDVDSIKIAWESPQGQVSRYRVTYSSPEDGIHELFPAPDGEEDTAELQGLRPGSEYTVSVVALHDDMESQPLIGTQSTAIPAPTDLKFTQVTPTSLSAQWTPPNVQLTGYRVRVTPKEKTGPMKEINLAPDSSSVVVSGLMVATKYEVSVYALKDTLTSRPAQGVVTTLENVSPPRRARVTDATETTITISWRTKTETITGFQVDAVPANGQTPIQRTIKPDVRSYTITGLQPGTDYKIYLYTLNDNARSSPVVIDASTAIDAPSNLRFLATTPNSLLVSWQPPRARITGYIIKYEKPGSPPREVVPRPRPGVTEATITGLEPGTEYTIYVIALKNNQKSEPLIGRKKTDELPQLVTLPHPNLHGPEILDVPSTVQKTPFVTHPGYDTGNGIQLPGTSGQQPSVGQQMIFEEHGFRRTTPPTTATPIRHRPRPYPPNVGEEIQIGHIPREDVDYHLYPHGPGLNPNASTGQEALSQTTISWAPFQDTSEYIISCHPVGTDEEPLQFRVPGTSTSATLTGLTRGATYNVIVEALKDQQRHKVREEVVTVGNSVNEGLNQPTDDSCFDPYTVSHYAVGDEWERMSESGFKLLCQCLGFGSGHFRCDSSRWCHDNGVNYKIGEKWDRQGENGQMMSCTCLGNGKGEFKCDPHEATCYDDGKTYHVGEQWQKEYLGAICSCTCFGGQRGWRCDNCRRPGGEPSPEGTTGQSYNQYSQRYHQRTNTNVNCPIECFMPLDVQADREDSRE", "assay": "Pull-down assay of purified His-tagged dysadherin proteins with purified fibronectin protein", "format": "binding", "conditions": "purified His-tagged dysadherin proteins 1 μg, purified fibronectin 0.5 μg, anti-His antibody, immunoblot", "text": "FIGS. […] illustrate the extracellular domain of dysadherin directly binds fibronectin. (FIG. 12A) Co-IP with anti-dysadherin antibody (M53) and subsequent immunoblot analyses validate the binding of dysadherin to endogenous fibronectin in CRC cells. (FIG. 12B) Co-IP with M53 and subsequent immunoblot analyses confirm that the quantity of dysadherin-bound fibronectin is decreased by dysadherin KO but increased by dysadherin OE. (FIG. 12C) Whole-protein lysates and membrane fractions were extracted from cells at the indicated time points. Culture media were collected and applied to dot blot assays to compare the quantities of secreted fibronectin. […]\nThe coding sequences of wild-type or mutant forms of dysadherin were synthesized and cloned into pET151/DTOPO vector by Thermo Fisher Scientific. […] The concentrated purified protein was measured using the BCA Protein Assay kit (Thermo Fisher Scientific). […] Presence of His-tagged dysadherin and fibronectin proteins were determined by immunoblot analysis using anti-His rabbit monoclonal antibody (#12698, Cell Signaling Technology) and anti-fibronectin rabbit polyclonal antibody (ab2413, Abcam, Cambridge, MA, USA). […] The purity of each peptide was determined to be over 95% by LC-MS. […] The presence of His-tagged dysadherin, dysadherin peptides, and fibronectin was determined by staining with Coomassie Brilliant Blue."}}, "data": [{"molecule": "CNC(=O)c1ccccc1Nc1cc(Nc2ccc(N3CCOCC3)cc2OC)ncc1C(F)(F)F", "note": "[VS-4718]", "values": [{"measurement": "dysadherin-induced increase in CRC migration", "setting": "HCT116 cells [1]", "result": "attenuated"}, {"measurement": "fibronectin-induced FAK activation", "setting": "FAK; cells on fibronectin-coated plates, VS-4718 at 1 or 3 μM, 4 h", "result": "inhibitory effects"}, {"measurement": "basal p-FAK levels", "setting": "FAK; treatment with VS-4718, FIG. 16C", "result": "diminished basal p-FAK levels"}, {"measurement": "dysadherin-induced increase in CRC invasion", "setting": "HCT116 cells [2]", "result": "attenuated"}, {"measurement": "dysadherin-induced CRC growth", "setting": "[3]", "result": "diminished dysadherin-induced CRC growth"}, {"measurement": "growth of wild-type HCT116 cells", "setting": "wild-type HCT116 cells", "result": "attenuated the growth of wild-type HCT116 cells"}, {"measurement": "dysadherin-induced increase in CRC survival", "setting": "HCT116 cells [4]", "result": "attenuated"}]}, {"molecule": "KAAHPTDDTTTLSERPSPST (listed as Homo sapiens) [N #4]", "values": [{"measurement": "cytotoxicity against SW480 cells", "setting": "SW480 cells", "result": "selective cytotoxicity"}, {"measurement": "effect against dysadherin KO SW480 cells", "setting": "[5]", "result": "limited effect"}, {"measurement": "fibronectin-binding activity", "setting": "fibronectin [6]", "result": "displayed fibronectin-binding activity"}]}, {"molecule": "PADETPQPQTQTQQLEGTDGP (listed as Homo sapiens) [N #3]", "values": [{"measurement": "cytotoxicity against SW480 cells", "setting": "SW480 cells", "result": "selective cytotoxicity"}, {"measurement": "effect against dysadherin KO SW480 cells", "setting": "[5]", "result": "limited effect"}, {"measurement": "fibronectin-binding activity", "setting": "fibronectin [6]", "result": "displayed fibronectin-binding activity"}]}, {"molecule": "B1", "values": [{"measurement": "binding to fibronectin", "setting": "fibronectin [7]", "result": "direct binding"}]}]}
